Measured values taken from US7268146B2, “Ring fused pyrazole derivatives as CRF antagonists” (Palo Alto LLC, priority 2001, dated 2007).
Structures can show the parent of a compound that is named as a salt.

Legend:
hCRF1 = molecular target: T1, hCRF1 (Homo sapiens, UniProt P34998); test: CRF Receptor Binding Assay; settings: CRF1 receptor binding affinity (table title); read-out: hCRF1 (pIC50) (converted)
T1 construct: Celll membranes are prepared according the method of Dieterich and DeSouza (1996); endogenous in cells; host or cells: human IMR-32 neuroblastoma cells (membrane preparation)
T1 sequence (P34998 24-415): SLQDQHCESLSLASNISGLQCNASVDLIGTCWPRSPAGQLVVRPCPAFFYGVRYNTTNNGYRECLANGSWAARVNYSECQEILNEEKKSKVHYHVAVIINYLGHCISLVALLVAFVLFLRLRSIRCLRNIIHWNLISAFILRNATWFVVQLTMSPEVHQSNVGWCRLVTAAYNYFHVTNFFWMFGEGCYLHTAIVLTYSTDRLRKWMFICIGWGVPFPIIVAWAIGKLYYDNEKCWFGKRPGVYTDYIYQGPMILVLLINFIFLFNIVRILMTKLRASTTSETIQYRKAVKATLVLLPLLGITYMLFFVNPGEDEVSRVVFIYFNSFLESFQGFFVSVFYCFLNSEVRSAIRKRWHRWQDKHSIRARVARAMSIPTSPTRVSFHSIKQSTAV
Experimental: Human IMR-32 neuroblastoma cells are grown to 80% confluence in MEM medium containing 10% heat-inactivated FBS, 1 mM Sodium Pyruvate, and 0.1 mM nonessential amino acids. Celll membranes are prepared according the method of Dieterich and DeSouza (1996). The cells (˜5E+9) are resuspended in 10 volumes of wash buffer (5 mM Tris HCl, 10 mM MgCl2, 2 mM EGTA, pH 7.4 at RT), homogenized with a Polytron, and then centrifuged at 45,000 G for 20 min at 4° C. The membrane pellets are washed twice with wash buffer (45,000 G for 20 min at 4° C.) and then resuspended (50 mM Tris HCl, 10 mM MgCl2, 2 mM EGTA, pH 7.4 at RT). Protein concentration is determined using Pierce reagents and BSA as standard. Aliquots of 1-1.5 ml are stored at −80° C. until binding assay.
The competition binding assay is performed in a final volume of 250 μl, which contains assay buffer (50 mM Tris-HCl, 10 mM MgCl2, 2 mM EGTA, 0.2% BSA, 0.1 mM bacitracin and 100 kIU/ml aprotinin pH 7.2 at R.T.), 0.05 nM [^125I]Tyr^0-ovine CRF (Du Pont New England Nuclear), 50 μg of membrane protein, and test compound at various concentrations. Non-specific binding is determined with 1 uM hCRF. Binding reactions are terminated after 2 hr incubation at 25° C. by filtering through 96-w GF/C filter plate using a Packard Harvester (Filtermate 196). The 96-w filter plate is pre-treated with 0.3% polyethyleneimine and pre-washed with washing buffer (50 mM Tris-HCl, 10 mM MgCl2, 2 mM EGTA, 0.2% BSA, pH 7.2 at 4° C.). Unbound radioactivity is removed by four rapid washes (0.8 ml/well) with wash buffer. The radioactivity is quantified using a Packard TopCount. Data are analyzed using non-linear iterative curve fitting to obtain IC50 and Hill slope values. PKi values are derived from pIC50 values (−log of IC50).

SMILES	melting point	IC50 (hCRF1)
CCCC(O)(c1cccs1)c1c2c(nn1C)N(c1c(C)cc(C)cc1C)CCC2 (stereo not drawn) [Example 5c, 1-[2-Methyl-7-(2,4,6-trimethylphenyl)-4,5,6,7-tetrahydro-2H-pyrazolo[3,4-b]pyridin-3-yl]-1-thiophen-2-ylbutan-1-ol]	175.9 to 178.4 °C	11200 nM
CCCC(CCC)c1c2c(nn1C)N(c1c(C)cc(C)cc1C)CCC2 [Example 7b, 2-Methyl-3-(1-propylbutyl)-7-(2,4,6-trimethylphenyl)-4,5,6,7-tetrahydro-2H-pyrazolo[3,4-b]pyridine]	91.5 to 92 °C	87.1 nM
Cc1cc(C)c(N2CCCc3c2nn(C)c3CN2CCc3ccccc3C2)c(C)c1 [Example 11, 2-[2-Methyl-7-(2,4,6-trimethyl-phenyl)-4,5,6,7-tetrahydro-2H-pyrazolo[3,4-b]pyridin-3-ylmethyl]-1,2,3,4-tetrahydroisoquinolinedihydrochloride]		12000 nM
CCCC(CCC)Oc1c2c(nn1C)N(c1ccc(Cl)cc1Cl)CCC2 [Example 12b, 7-(2,4-Dichlorophenyl)-2-methyl-3-(1-propylbutoxy)-4,5,6,7-tetrahydro-2H-pyrazolo[3,4-b]pyridinehydrochloride]		27.5 nM
Cc1cc(C)c(N2CCCc3c2nn(C)c3-c2ccccc2C(F)(F)F)c(C)c1 [Example 13a, 2-Methyl-3-(2-trifluoromethylphenyl)-7-(2,4,6-trimethylphenyl)-4,5,6,7-tetrahydro-2H-pyrazolo[3,4-b]pyridine]	59 to 63 °C	776 nM

Further lines, results first:

melting point	IC50 (hCRF1)	SMILES
106 to 107 °C	1070 nM	Cc1cc(C)c(N2CCCc3c2nn(C)c3Br)c(Cl)c1 [Example 1, 3-Bromo-7-(2-chloro-4,6-dimethylphenyl)-2-methyl-4,5,6,7-tetrahydro-2H-pyrazolo[3,4-b]pyridine]
	234 nM	CC/C=C(\CCC)c1c2c(nn1C)N(c1ccc(Cl)cc1Cl)CCC2 [Example 6e, 7-(2,4-Dichlorophenyl)-2-methyl-3-(1-propylbut-1-enyl)-4,5,6,7-tetrahydro-2H-pyrazolo[3,4-b]pyridine]
	832 nM	CCCN(Cc1ccco1)c1c2c(nn1C)N(c1c(C)cc(C)cc1Cl)CCC2 [Example 9c, [7-(2-Chloro-4,6-dimethyl-phenyl)-2-methyl-4,5,6,7-tetrahydro-2H-pyrazolo[3,4-b]pyridin-3-yl]-furan-2-ylmethyl-propyl-aminetrifluoroacetic acid salt]
